Results taken from patent publication US20130136772A1, “REGULATION OF IMMUNE RESPONSE BY COLOCYNTHIN AND/OR ITS DERIVATIVES” (priority 2010, published 2013).

Tests used:
[1] = system: macrophage phagocytic response; test: Clearance rate of carbon particles from the circulation (phagocytic index, in vivo); parameters: species or system mice
Description: K., Sharma, M. L., Kaul, A and Khajuria, A. (1986) Immunomodulating agents of plant origin. 1. Preliminary screening. Journal of Ethnopharmacology. 18, 133-141.] Blood samples were collected before and at intervals varying between 2 and 90 min after carbon injection. An aliquot (10 μL) of blood samples were lysed with 2mL of 0.1% acetic acid and the transparency determined spectrophotometrically at 675 nm (Uvikon 810, spectrophotometer, Kontron Ltd., Switzerland) (Hudson and Hay, 1980). AD-B-63B was administered orally for 7 days and 30 min prior to the carbon injection. The rate of carbon clearance termed as phagocytic index was calculated (Table 4).

[2] = system: cell mediated immune response (DTH); test: SRBC induced delayed type hypersensitivity (DTH) response; format: in vivo, mice; details: for FOOT PAD THICKNESS Mean ± SE: 24 h after SRBC challenge
Description: Test material was administered 2 h after immunization of mice by 200 μl of 5×10^9 SRBCs/ml. On 7th day, the thickness of the left hind foot was measured with spheromicrometer (0.01 mm pitch) and was considered as control. These mice were then challenged by injecting the 20 μl of 5×10^9 SRBCs/ml intradermally into the left hind footpad. The footpad thickness was measured again at 24 h after challenge (Doherty, 1981).

Nitric oxide (NO) = test: In vivo nitric oxide estimation in serum of LPS challenged mice; parameters: species or system balb/c mice; details: 1, 2.5, 5 and 10 mg/kg oral for 6 days, LPS 1 mg/kg i.v., serum 90 min after LPS
Description: (§1) Invivo experiments were carried out using balb/c mice that were orally administrated with graded oral doses of AD-B-63B (1, 2.5, 5 and 10 mg/kg) for 6 days and challenged with LPS. Nitric oxide (NO) is an important mediator of diverse physiologic and pathologic processes, including many inflammatory diseases [Abramson S B, Amin A R, Clancy R M, Attur M, (2001). The role of nitric oxide in tissue destruction. Best Practice & Research Clinical Rheumatology; 15: 831-845]. Several lines of evidence implicate NO in the pathogenesis of inflammation. For example, rodents in animal models of arthritis generate abundant quantities of NO, as reflected in high levels of serum and urinary NO that develop in association with disease manifestations [Stefanovic-Racic M, Meyers K, Meschter C, Coffey J W, Hoffman R A, Evans C H, (1994). Monomethyl arginine, an inhibitor of nitric oxide synthase, suppresses the development of adjuvant arthritis in rats. Arthritis & Rheumatism; 37: 1062-1069.] [McCartney-Francis N, Allen J B, Mizel D E, Albina J E, Xie Q W, Nathan C F, Wahl S M, (1993). Suppression of arthritis by an inhibitor of nitric oxide synthase. Journal of Experimental Medicine; 178: 749-754.] [Weinberg J B, (1998). […] TNF-α, IL-1 beta and Nitric oxide production was evaluated by a commercial ELISA kits (R&D Systems) in serum from AD-B-63B treated mice, 90 min after LPS injection.

IL-1 beta = test: In vivo IL-1 beta estimation in serum of LPS challenged mice; parameters: species or system balb/c mice; details: 1, 2.5, 5 and 10 mg/kg oral for 6 days, LPS 1 mg/kg i.v., serum 90 min after LPS
Description: as §1

IFN-γ = test: Intracellular IFN-γ expression in SRBC immunised mice; format: in vivo, Swiss albino mice; details: graded doses; inhibition observed at 5 and 10 mg/kg p.o.
Description: Estimation of intracellular cytokines: The animals were immunized as mentioned above. After 6 days of drug administration, the animals were challenged on day 7. After 48 h of challenge, the blood was collected in the tubes containing EDTA (anti-coagulant) from retro-orbital plexes of animals to determine the effect of test material on the expression of intracellular IL-2 and IFN-γ (Th1) and IL-4 (Th2) cytokines. In this study, PE labeled IL-2 monoclonal antibody was used in one set and PE labeled IFN-γ and FITC labelled IL-4 monoclonal antibody was used in the other set of experimentation (FIG. 7, 8, 9).

## CC(=O)OC(C)(C)/C=C/C(=O)[C@](C)(O)[C@H]1[C@H](O)C[C@@]2(C)[C@@H]3CC=C4[C@@H](C=C(O[C@@H]5O[C@H](CO)[C@@H](O)[C@H](O)[C@H]5O)C(=O)C4(C)C)[C@]3(C)C(=O)C[C@]12C [AD-B-63B, 2-O-β-D-glucopyranosyl cucurbitacin E]
[1]; 1 mg/kg
  percent decrease in phagocytic index: (14.28%↓)
[1]; 1 mg/kg orally for 7 days
  Phagocytic index [in vivo study] Mean ± S.E.: 1.08 ± 0.09
[1]; 5 mg/kg
  percent decrease in phagocytic index: (26.98%↓)
[1]; 5 mg/kg orally for 7 days
  Phagocytic index [in vivo study] Mean ± S.E.: 0.92 ± 0.04
[1]; 10 mg/kg
  percent decrease in phagocytic index: (26.19%↓)
[1]; 10 mg/kg orally for 7 days
  Phagocytic index [in vivo study] Mean ± S.E.: 0.93 ± 0.07
[1]; dose range of 1-10 mg/kg, oral for 7 days
  decrease in phagocytic index: 14.28-26.19%
[2]; 1 mg/kg p.o.
  PERCENT INHIBITION (DTH response): 15.21↓ %
  FOOT PAD THICKNESS Mean ± SE: 0.78 ± 0.01 mm
[2]; 5 mg/kg p.o.
  PERCENT INHIBITION (DTH response): 28.26↓ %
  FOOT PAD THICKNESS Mean ± SE: 0.66 ± 0.01 mm
[2]; 10 mg/kg p.o.
  PERCENT INHIBITION (DTH response): 29.35↓ %
  FOOT PAD THICKNESS Mean ± SE: 0.65 ± 0.02 mm
[2]; orally administered, graded doses
  SRBC induced DTH reaction: dose dependent decrease
Nitric oxide (NO)
  Level of serum NO: significant reduction
IL-1 beta
  Level of serum IL-1 beta: significant reduction
IFN-γ
  expression of IFN-γ: decrease
